Measured values from ChEMBL document CHEMBL1909046, “DrugMatrix in vitro pharmacology data”.

What was measured:
[1] = biological target: D(3) dopamine receptor (Homo sapiens, UniProt P35462); assay: DRUGMATRIX: Dopamine D3 radioligand binding (ligand: [3H] Spiperone); format: cell membranes, CHO, Membrane
[2] = biological target: T1, Alpha-1D adrenergic receptor (Homo sapiens, UniProt P25100); format: cell membranes, HEK293, Membrane; note: in other assays of this panel Not Active means under 50% inhibition at 10 µM
T1 sequence (P25100 whole entry): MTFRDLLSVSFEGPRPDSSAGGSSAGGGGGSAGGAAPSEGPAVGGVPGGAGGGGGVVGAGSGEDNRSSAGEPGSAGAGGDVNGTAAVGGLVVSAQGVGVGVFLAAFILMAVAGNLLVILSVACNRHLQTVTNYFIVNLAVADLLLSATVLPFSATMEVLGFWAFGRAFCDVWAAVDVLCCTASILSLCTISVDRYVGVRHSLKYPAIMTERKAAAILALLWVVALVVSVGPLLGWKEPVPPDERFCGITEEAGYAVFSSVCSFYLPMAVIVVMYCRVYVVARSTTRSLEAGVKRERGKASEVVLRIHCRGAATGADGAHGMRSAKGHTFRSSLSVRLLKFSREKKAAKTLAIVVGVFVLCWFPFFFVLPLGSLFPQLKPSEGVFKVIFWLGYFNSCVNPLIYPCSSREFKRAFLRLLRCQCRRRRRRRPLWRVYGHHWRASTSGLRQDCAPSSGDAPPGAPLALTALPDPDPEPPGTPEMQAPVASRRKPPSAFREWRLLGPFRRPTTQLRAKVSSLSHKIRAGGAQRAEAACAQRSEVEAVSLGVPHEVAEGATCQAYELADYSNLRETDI

[3] = biological target: T2, Receptor-type tyrosine-protein phosphatase C (Homo sapiens, UniProt P08575); design: species or system Escherichia coli;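 note: inhibition of CD45 enzyme activity measured using DiFMUP as substrate; in other assays of this panel Not Active means under 50% inhibition at 10 µM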
T2 sequence (P08575 whole entry): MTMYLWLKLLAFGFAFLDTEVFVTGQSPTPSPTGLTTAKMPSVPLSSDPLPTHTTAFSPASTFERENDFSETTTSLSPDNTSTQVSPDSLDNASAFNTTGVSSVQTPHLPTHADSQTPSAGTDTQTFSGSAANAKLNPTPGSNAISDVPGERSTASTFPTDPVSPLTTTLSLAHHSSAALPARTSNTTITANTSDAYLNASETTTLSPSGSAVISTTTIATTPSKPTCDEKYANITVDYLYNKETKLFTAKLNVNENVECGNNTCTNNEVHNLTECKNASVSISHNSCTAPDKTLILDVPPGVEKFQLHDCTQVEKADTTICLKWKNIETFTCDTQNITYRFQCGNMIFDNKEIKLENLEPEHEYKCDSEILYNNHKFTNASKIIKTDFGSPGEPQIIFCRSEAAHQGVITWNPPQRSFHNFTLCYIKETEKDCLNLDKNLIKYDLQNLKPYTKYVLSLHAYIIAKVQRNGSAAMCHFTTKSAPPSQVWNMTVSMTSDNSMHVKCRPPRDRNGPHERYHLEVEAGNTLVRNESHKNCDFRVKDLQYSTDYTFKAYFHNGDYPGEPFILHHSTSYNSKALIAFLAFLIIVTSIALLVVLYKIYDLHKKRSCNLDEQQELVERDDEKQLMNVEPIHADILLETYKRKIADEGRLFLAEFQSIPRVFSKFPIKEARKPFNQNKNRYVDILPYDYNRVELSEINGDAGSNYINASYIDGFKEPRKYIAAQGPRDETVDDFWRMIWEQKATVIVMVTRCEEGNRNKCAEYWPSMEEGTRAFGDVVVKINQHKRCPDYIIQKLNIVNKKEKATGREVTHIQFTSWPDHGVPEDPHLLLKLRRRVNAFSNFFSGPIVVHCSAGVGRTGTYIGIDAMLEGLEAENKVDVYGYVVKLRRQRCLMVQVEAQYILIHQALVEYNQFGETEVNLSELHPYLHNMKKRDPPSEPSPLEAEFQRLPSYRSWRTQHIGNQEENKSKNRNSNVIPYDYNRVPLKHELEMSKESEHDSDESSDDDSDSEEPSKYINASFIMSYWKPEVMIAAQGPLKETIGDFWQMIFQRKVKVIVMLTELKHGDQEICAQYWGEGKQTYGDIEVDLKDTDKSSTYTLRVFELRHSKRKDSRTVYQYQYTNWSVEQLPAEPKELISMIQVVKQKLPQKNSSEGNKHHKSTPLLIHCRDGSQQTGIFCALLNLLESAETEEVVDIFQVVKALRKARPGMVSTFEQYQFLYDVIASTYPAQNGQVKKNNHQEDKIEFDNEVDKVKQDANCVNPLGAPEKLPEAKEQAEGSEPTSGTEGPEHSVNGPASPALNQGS

[4] = biological target: T3, Cathepsin G (Homo sapiens, UniProt P08311); format: tissue-based; settings: neutrophil;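 note: inhibition of Cathepsin G enzyme activity, tested on an AMC-conjugated peptide substrate; in other assays of this panel Not Active means under 50% inhibition at 10 µM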
T3 sequence (P08311 whole entry): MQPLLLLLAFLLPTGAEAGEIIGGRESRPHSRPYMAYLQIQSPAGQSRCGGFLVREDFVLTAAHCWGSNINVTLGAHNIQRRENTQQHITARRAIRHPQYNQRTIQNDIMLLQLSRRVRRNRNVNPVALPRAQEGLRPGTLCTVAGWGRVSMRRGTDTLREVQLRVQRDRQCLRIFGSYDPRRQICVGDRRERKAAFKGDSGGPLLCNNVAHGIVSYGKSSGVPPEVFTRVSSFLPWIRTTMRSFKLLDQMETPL

[5] = biological target: 5-hydroxytryptamine receptor 4 (Cavia porcellus, UniProt O70528); format: cell membranes, Dunkin-Hartley, Striatum, Membrane; note: in other assays of this panel Not Active means under 50% inhibition at 10 µM
Sequence of 5-hydroxytryptamine receptor 4 (O70528 whole entry): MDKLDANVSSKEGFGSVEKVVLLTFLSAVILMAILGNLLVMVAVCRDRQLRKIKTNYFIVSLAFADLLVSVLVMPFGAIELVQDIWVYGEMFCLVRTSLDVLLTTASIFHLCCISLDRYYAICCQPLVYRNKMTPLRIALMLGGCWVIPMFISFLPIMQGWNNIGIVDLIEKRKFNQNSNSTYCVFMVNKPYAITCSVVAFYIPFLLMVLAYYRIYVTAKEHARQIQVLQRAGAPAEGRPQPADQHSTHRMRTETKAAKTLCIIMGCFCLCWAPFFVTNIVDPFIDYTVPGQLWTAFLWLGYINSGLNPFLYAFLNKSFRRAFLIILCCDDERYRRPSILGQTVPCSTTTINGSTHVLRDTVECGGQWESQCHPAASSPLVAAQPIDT

Sequence of D(3) dopamine receptor (P35462 whole entry): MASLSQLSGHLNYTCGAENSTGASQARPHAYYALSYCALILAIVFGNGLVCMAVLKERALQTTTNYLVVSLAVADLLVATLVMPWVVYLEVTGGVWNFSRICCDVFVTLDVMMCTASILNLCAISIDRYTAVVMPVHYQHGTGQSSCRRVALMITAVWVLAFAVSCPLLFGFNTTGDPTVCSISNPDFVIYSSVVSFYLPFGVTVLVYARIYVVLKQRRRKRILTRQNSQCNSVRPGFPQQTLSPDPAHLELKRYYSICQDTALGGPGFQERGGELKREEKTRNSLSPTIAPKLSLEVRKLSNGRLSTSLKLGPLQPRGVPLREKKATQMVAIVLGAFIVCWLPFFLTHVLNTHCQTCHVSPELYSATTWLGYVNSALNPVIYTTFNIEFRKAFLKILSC

O=c1[nH]c(=O)n([C@H]2C[C@H](O)[C@@H](CO)O2)cc1I [IDOXURIDINE]
IC50 ([1]; cho): Not Active
IC50 ([2]; hek293): Not Active
IC50 [3]: Not Active
IC50 [4]: Not Active
IC50 [5]: Not Active

CC1(C)S[C@@H]2[C@H](NC(=O)Cc3ccccc3)C(=O)N2[C@H]1C(=O)O [PENICILLIN G]
IC50 ([1]; cho): Not Active
IC50 ([2]; hek293): Not Active
IC50 [3]: Not Active
IC50 [4]: Not Active
IC50 [5]: Not Active

CC1=C2C(=CO[C@H](C)[C@H]2C)C(O)=C(C(=O)O)C1=O [CITRININ]
IC50 ([1]; cho): Not Active
IC50 ([2]; hek293): Not Active
IC50 [3]: Not Active
IC50 [4]: Not Active
IC50 [5]: Not Active

Cc1c(C)c2c(c(C)c1O)CC[C@@](C)(CCC[C@H](C)CCC[C@H](C)CCCC(C)C)O2 [ALPHA-TOCOPHEROL]
IC50 ([1]; cho): Not Active
IC50 ([2]; hek293): Not Active
IC50 [3]: Not Active
IC50 [4]: Not Active
IC50 [5]: Not Active

O=C(O)CCCc1ccc(N(CCCl)CCCl)cc1 [CHLORAMBUCIL]
IC50 ([1]; cho): Not Active
IC50 ([2]; hek293): Not Active
IC50 [3]: Not Active
IC50 [4]: Not Active
IC50 [5]: Not Active

CC[C@@]1(O)C[C@H](O[C@H]2C[C@H](N(C)C)[C@H](O[C@H]3C[C@H](O)[C@H](O[C@H]4CCC(=O)[C@H](C)O4)[C@H](C)O3)[C@H](C)O2)c2c(cc3c(c2O)C(=O)c2c(O)cccc2C3=O)[C@H]1C(=O)OC [ACLARUBICIN]
IC50 ([1]; cho): Not Active
IC50 ([2]; hek293): Not Active
IC50 [3]: Not Active
IC50 [4]: Not Active
IC50 [5]: Not Active

CC(=O)O[C@@]12CO[C@@H]1C[C@H](O)[C@@]1(C)C(=O)[C@H](O)C3=C(C)[C@@H](OC(=O)[C@H](O)[C@@H](NC(=O)OC(C)(C)C)c4ccccc4)C[C@@](O)([C@@H](OC(=O)c4ccccc4)[C@H]21)C3(C)C.O.O.O [DOCETAXEL]
IC50 ([1]; cho): Not Active
IC50 ([2]; hek293): Not Active
IC50 [3]: Not Active
IC50 [4]: Not Active
IC50 [5]: Not Active

CC(C)CN(C[C@@H](O)[C@H](Cc1ccccc1)NC(=O)O[C@H]1CCOC1)S(=O)(=O)c1ccc(N)cc1
IC50 ([1]; cho): Not Active
IC50 ([2]; hek293): Not Active
IC50 [3]: Not Active
IC50 [4]: Not Active
IC50 [5]: Not Active

C[C@](N)(Cc1ccc(O)c(O)c1)C(=O)O [METHYLDOPA]
IC50 ([1]; cho): Not Active
IC50 ([2]; hek293): Not Active
IC50 [3]: Not Active
IC50 [4]: Not Active
IC50 [5]: Not Active

Nc1nc(N)nc(-c2cc(Cl)ccc2Cl)n1.O=C(O)/C=C\C(=O)O [IRSOGLADINE MALEATE]
IC50 ([1]; cho): Not Active
IC50 ([2]; hek293): Not Active
IC50 [3]: Not Active
IC50 [4]: Not Active
IC50 [5]: Not Active

Nc1ncn([C@@H]2O[C@H](CO)[C@@H](O)[C@H]2O)c(=O)n1 [AZACITIDINE]
IC50 ([1]; cho): Not Active
IC50 ([2]; hek293): Not Active
IC50 [3]: Not Active
IC50 [4]: Not Active
IC50 [5]: Not Active

LIPOPOLYSACCHARIDE E. COLI O55:B5
IC50 ([1]; cho): Not Active
Ki ([1]; cho): Not Active
IC50 ([2]; hek293): Not Active
Ki ([2]; hek293): Not Active
IC50 [3]: Not Active
Ki [3]: Not Active
IC50 ([4]; read-out: IC50): 852 nM
IC50 [5]: Not Active
Ki [5]: Not Active

CCCCN1CCCC[C@H]1C(=O)Nc1c(C)cccc1C [LEVOBUPIVACAINE]
IC50 ([1]; cho): Not Active
IC50 ([2]; hek293): Not Active
IC50 [3]: Not Active
IC50 [4]: Not Active
IC50 [5]: Not Active

CC(C)C(=O)Nc1ccc([N+](=O)[O-])c(C(F)(F)F)c1 [FLUTAMIDE]
IC50 ([1]; cho): Not Active
IC50 ([2]; hek293): Not Active
IC50 [3]: Not Active
IC50 [4]: Not Active
IC50 ([5]; read-out: IC50): 13500 nM
Ki ([5]; read-out: Ki): 2260 nM

CC(C)[C@H]1C(=O)N2CCC[C@H]2[C@]2(O)O[C@](NC(=O)[C@@H]3C=C4c5cccc6[nH]cc(c56)C[C@H]4N(C)C3)(C(C)C)C(=O)N12 [ERGOCORNINE]
IC50 ([1]; read-out: IC50): 2.86 nM
Ki ([1]; read-out: Ki): 0.971 nM
IC50 ([2]; read-out: IC50): 18 nM
Ki ([2]; read-out: Ki): 8.75 nM
IC50 [3]: Not Active
IC50 [4]: Not Active
IC50 [5]: Not Active

CC(C)(Oc1ccc(Cl)cc1)C(=O)O [CLOFIBRIC ACID]
IC50 ([1]; cho): Not Active
IC50 ([2]; hek293): Not Active
IC50 [3]: Not Active
IC50 [4]: Not Active
IC50 [5]: Not Active

CCCC1O[C@@H]2C[C@H]3[C@@H]4CCC5=CC(=O)C=C[C@]5(C)[C@H]4[C@@H](O)C[C@]3(C)[C@]2(C(=O)CO)O1 (stereo partly specified) [BUDESONIDE]
IC50 ([1]; cho): Not Active
IC50 ([2]; hek293): Not Active
IC50 [3]: Not Active
IC50 [4]: Not Active
IC50 [5]: Not Active

O=C(CCCN1CC=C(n2c(=O)[nH]c3ccccc32)CC1)c1ccc(F)cc1 [DROPERIDOL]
IC50 ([1]; read-out: IC50): 2.77 nM
Ki ([1]; read-out: Ki): 0.939 nM
IC50 ([2]; read-out: IC50): 83 nM
Ki ([2]; read-out: Ki): 41 nM
IC50 [3]: Not Active
IC50 [4]: Not Active
IC50 ([5]; read-out: IC50): 3790 nM
Ki ([5]; read-out: Ki): 632 nM

Clc1cccc(Cl)c1NC1=NCCN1 [CLONIDINE]
IC50 ([1]; cho): Not Active
IC50 ([2]; read-out: IC50): 1210 nM
Ki ([2]; read-out: Ki): 595 nM
IC50 [3]: Not Active
IC50 [4]: Not Active
IC50 [5]: Not Active

Cc1onc(O)c1CC(N)C(=O)O (racemic) [(R,S)-AMPA]
IC50 ([1]; cho): Not Active
IC50 ([2]; hek293): Not Active
IC50 [3]: Not Active
IC50 [4]: Not Active
IC50 [5]: Not Active

CCOC(=O)C1=C(COCCN)NC(C)=C(C(=O)OC)C1c1ccccc1Cl (stereo unspecified) [AMLODIPINE]
IC50 ([1]; cho): Not Active
IC50 ([2]; hek293): Not Active
IC50 [3]: Not Active
IC50 [4]: Not Active
IC50 [5]: Not Active
